Measured values from paper PMC9149975, “The diaryl-imidazopyridazine anti-plasmodial compound, MMV652103, exhibits anti-breast cancer activity” (EXCLI Journal, 2022).

Tests used:
chick embryos = experiment: Chick embryo CAM model: toxicity to the embryo; format: in vivo; details: 4.4 μM and 22 μM
From the text: At stage E9, the chorioallantoic membrane (CAM) was dropped by drilling a small hole through the eggshell into the air sac and a 1 cm^2 window was cut in the eggshell above the CAM. Cultured MCF7 cells were detached with trypsin, washed with complete medium and suspended in PBS. […] At E18 the upper portion of the CAM was removed, transferred to PBS and the tumors cut away from normal CAM tissue and weighed. A one-way ANOVA analysis with post-tests was done. In parallel, a 1 cm^2 portion of the lower CAM was collected to evaluate the number of metastatic cells. The relative amount of metastasis was calculated as follows: Tumor cells were grafted onto the upper chorioallantoic membrane (CAM) and during metastasis the cells invade the epithelium and basement membrane of the upper CAM and move through connective tissue into the vasculature into the lower CAM. The cells in the lower CAM are then harvested and genomic DNA is extracted and analyzed by qPCR with specific primers for Alu sequences which are only found in higher primates i.e. it allows for the distinction between human tumor cells and the host chick cells. Statistical analysis was directly performed on data from the Bio-Rad CFX Manager 3.1 software.

T47D cells = experiment: Scratch motility assay, T47D; format: cell-based, human; details: IC50 and 2 x IC50; 3, 6, 9 h
Method: Cells were grown to 100 % confluence in 12-well tissue culture plates and the following day a sterile 2 µl pipette tip was used to make a vertical scratch in the cell monolayer of each well and the cells treated with mitomycin C (M4287; Sigma Aldrich) at a final concentration of 10 μg/ml to inhibit proliferation. Cells were subsequently treated with MMV652103 or vehicle and imaged at 0, 3, 6 and 9 h post wound formation and ImageJ v1.50i software was used to calculate the area of the scratch (Schneider et al., 2012[73]). The total areas migrated was determined by subtracting the area for a specific time point from the area measured at 0 h.

In the case of `CS(=O)(=O)c1ccc(-c2cnc3ccc(-c4cccc(S(C)(=O)=O)c4)nn23)cc1` [MMV652103], the “death ratio of chick embryos” value (chick embryos) is reported as “did not result in an abnormal death ratio”, the “macroscopic abnormalities of chick embryos” value (chick embryos; results not shown) is reported as “nor did it lead to any macroscopic abnormalities” and the T47D cell migration (T47D cells) is reported as “significant reduction”.
